What was measured:
[1] = test system: plasma ALP (80-90% containing TNAP); experiment: Inhibitory test of plasma TNAP activity in B6 mouse; type: in vivo; details: 0.3 mg/kg orally in 0.5% methylcellulose, average inhibition from 0 hour to 6 hours after administration, activity before administration = 100%
Experimental: (Test Example 3) Inhibitory Test of Plasma TNAP Activity in B6 Mouse (Charles River Laboratories Japan, Inc.)
After blood sampling from the tail vein using a heparin-treated hematocrit capillary tube (EM Meister Hematocrit Capillary Tube, AS ONE Corp.) (as the sample before compound administration), each test compound suspended in a 0.5% methylcellulose solution (powder purchased from Wako Pure Chemical Industries, Ltd. was adjusted to 0.5% with Otsuka distilled water) was administered orally to the mouse (0.3 mg/kg). 1, 2, 4, 6, and 24 hours after the administration, blood was collected from the tail vein using a heparin-treated hematocrit capillary tube to obtain a plasma sample. The plasma sample was added to an assay buffer (1 M Tris, 1 M MgCl2, 20 mM ZnCl2, and water, pH 7.5), and the mixture was left standing for 5 minutes. Then, the absorbance at 405 nm was measured and used as a blank. The substrate pNPP was added to the plasma sample and incubated at room temperature for 180 minutes. Then, the absorbance (ABS: 405 nm) was measured using a microplate reader (model plus 384, Molecular Devices, LLC), and the concentration of produced p-nitrophenol was calculated. The blank was subtracted from all measurement values to calculate TNAP activity at each time point with the TNAP activity of the sample before compound administration defined as 100%.
It was calculated according to the following expression: 100−((plasma ALP activity at 0 hr+plasma ALP activity at 1 hr)*1/2+(plasma ALP activity at 1 hr+plasma ALP activity at 2 hr)*1/2+(plasma ALP activity at 2 hr+plasma ALP activity at 4 hr)*2/2+(plasma ALP activity at 4 hr+plasma ALP activity at 6 hr)*2/2)/6.

[2] = target: T1, human TNAP (Homo sapiens, UniProt P05186); experiment: Inhibitory test of TNAP activity (pNPP substrate, p-nitrophenol production); type: biochemical; details: human TNAP from culture supernatant of transfected COS1 cells, 60 minutes at room temperature, ABS 405 nm
T1 construct: host or cells: COS1 cells, concentrated and dialyzed culture supernatant
T1 sequence (P05186 18-502 limits assumed): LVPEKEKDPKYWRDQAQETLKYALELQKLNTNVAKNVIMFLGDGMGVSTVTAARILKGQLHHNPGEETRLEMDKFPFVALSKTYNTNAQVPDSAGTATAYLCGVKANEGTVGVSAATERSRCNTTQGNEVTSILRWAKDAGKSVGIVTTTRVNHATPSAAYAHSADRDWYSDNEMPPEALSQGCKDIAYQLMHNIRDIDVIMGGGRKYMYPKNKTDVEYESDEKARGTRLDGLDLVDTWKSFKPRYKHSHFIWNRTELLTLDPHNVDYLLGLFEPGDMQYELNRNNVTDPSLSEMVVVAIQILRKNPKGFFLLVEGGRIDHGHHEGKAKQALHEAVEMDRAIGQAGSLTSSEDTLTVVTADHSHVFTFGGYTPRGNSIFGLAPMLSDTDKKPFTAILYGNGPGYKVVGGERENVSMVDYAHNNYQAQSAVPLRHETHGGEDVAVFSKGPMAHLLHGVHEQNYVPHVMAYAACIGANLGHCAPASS
Experimental: <Test Examples> (Test Example 1) Inhibitory Test of TNAP Activity
COS1 cells (DS Pharma Biomedical Co., Ltd.) were transfected with human TNAP (OriGene Technologies, Inc.) using Lipofectamine LTX & Plus reagent (Invitrogen Corp.). On the next day, the medium was replaced with a fresh medium, and the cells were cultured in an incubator for 3 days. After 3 days, the culture supernatant was collected and concentrated by centrifugation at 5000 G for 30 minutes using Amicon 14, 10^4 cut (Merck Millipore). The concentrated culture supernatant was dialyzed against 5 L of 50 mM Tris/200 mM NaCl/1 mM MgCl2/20 μM ZnCl2 twice and used as an enzyme source (enzyme solution). The substrate pNPP (ProteoChem Inc.) was adjusted to 3.1 mM with Milli-Q water, and a solution of each test compound dissolved in dimethyl sulfoxide (DMSO; Wako Pure Chemical Industries, Ltd.) by 6 serial dilutions at a 5-fold common ratio from 100 μM or DMSO was added thereto at a final concentration of 1% by volume. The enzyme solution adjusted to 2 μg/mL with an assay buffer (200 mM Tris/2 mM MgCl2/0.04 mM ZnCl2/0.01% Tween 20) was added in the same amount of the substrate solution and incubated at room temperature for 60 minutes. Then, the absorbance (ABS: 405 nm) was measured using a microplate reader (model plus 384, Molecular Devices, LLC), and the concentration of produced p-nitrophenol was calculated.

| Structure (SMILES) | Plasma ALP Inhibition (6 h ave. inhibition %) [1] | IC50 [2] |
| --- | --- | --- |
| Cc1cncc(S(=O)(=O)Nc2c(F)cc(Cl)cc2-c2ccc(OC(C)(C)C(=O)O)cc2)c1 [Example 3, 2-({5′-Chloro-3′-fluoro-2′-[(5-methylpyridine-3-sulfonyl)amino][1,1′-biphenyl]-4-yl}oxy)-2-methylpropanoic acid] | 70.5% | 0.24 nM |
| Cc1cncc(S(=O)(=O)Nc2c(F)cc(Cl)cc2-c2ccc(CCC(=O)O)cc2)c1 [Example 4, 3-{5′-Chloro-3′-fluoro-2′-[(5-methylpyridine-3-sulfonyl)amino][1,1′-biphenyl]-4-yl}propanoic acid] | 80.2% | – |
| Cc1cncc(S(=O)(=O)Nc2c(F)cc(Cl)cc2-c2ccc(CC(=O)O)cc2)c1C [Example 12, {5′-Chloro-2′-[(4,5-dimethylpyridine-3-sulfonyl)amino]-3′-fluoro[1,1′-biphenyl]-4-yl}acetic acid] | 82.2% | 0.1 nM |
| CCc1cncc(S(=O)(=O)Nc2c(F)cc(Cl)cc2-c2ccc(OC(C)(C)C(=O)O)cc2)c1 [Example 7, 2-({5′-Chloro-2′-[(5-ethylpyridine-3-sulfonyl)amino]-3′-fluoro[1,1′-biphenyl]-4-yl}oxy)-2-methylpropanoic acid] | 69.0% | 0.15 nM |
| CC(C)Oc1cncc(S(=O)(=O)Nc2c(F)cc(Cl)cc2-c2ccc(CCC(=O)O)cc2)c1 [Example 30, 3-[5′-Chloro-3′-fluoro-2′-({5-[(propan-2-yl)oxy]pyridine-3-sulfonyl}amino)[1,1′-biphenyl]-4-yl]propanoic acid] | 69.9% | 0.24 nM |
| Cc1cncc(S(=O)(=O)Nc2c(F)cc(Cl)cc2-c2ccc(CCC(=O)O)cc2)c1C [Example 31, 3-{5′-Chloro-2′-[(4,5-dimethylpyridine-3-sulfonyl)amino]-3′-fluoro[1,1′-biphenyl]-4-yl}propanoic acid] | 82.2% | 0.18 nM |
| Cc1cncc(S(=O)(=O)Nc2c(F)cc(Cl)cc2-c2ccc(CC(=O)O)cc2)c1 [Example 11, {5′-Chloro-3′-fluoro-2′-[(5-methylpyridine-3-sulfonyl)amino][1,1′-biphenyl]-4-yl}acetic acid] | 79.0% | 0.14 nM |
| CCc1cncc(S(=O)(=O)Nc2c(F)cc(Cl)cc2-c2ccc(CCC(=O)O)cc2)c1 [Example 29, 3-{5′-Chloro-2′-[(5-ethylpyridine-3-sulfonyl)amino]-3′-fluoro[1,1′-biphenyl]-4-yl}propanoic acid] | 70.9% | 0.18 nM |
| Cc1cncc(S(=O)(=O)Nc2c(F)cc(Cl)cc2-c2ccc(OC(C)(C)C(=O)O)cc2)c1C [Example 8, 2-({5′-Chloro-2′-[(4,5-dimethylpyridine-3-sulfonyl)amino]-3′-fluoro[1,1′-biphenyl]-4-yl}oxy)-2-methylpropanoic acid] | 76.2% | 0.15 nM |
